# Data taken from US20250073248A1, “BIORESORBABLE CATIONIC STEROIDAL ANTIMICROBIAL COMPOUNDS WITH GLYCERIDE LINKAGES” (BRIGHAM YOUNG UNIVERSITY, priority 2023, published 2025).
# Legend:
# [1] = test system: methicillin-resistant Staphylococcus aureus (MRSA); assay: MIC and MBC, broth microdilution, MRSA (Table 1); type: cell-based; settings: Staphylococcus aureus
# From the text: (§1) To investigate the antimicrobial impact of structural variance in the novel bioresorbable CSA compounds disclosed herein,Pseudomonas aeruginosa 01 (PA01), methicillin-resistant Staphylococcus aureus (MRSA), and Candida albicans (CA) were selected, representing Gram-negative bacterial, Gram-positive bacterial, and fungal pathogens of high or critical priority on the world health organization's priority lists for bacteria and fungi. Earlier applications of CSA compounds have focused on preventing medical device infections, and all three strains are commonly found in colonized implants, making efficacy against these pathogens an important indicator of future applicability.
# (§2) All compounds were screened against these pathogens to determine their minimum inhibitory concentration (MIC), minimum bactericidal concentration (MBC), and minimum fungicidal concentration (MFC) using a broth microdilution method. […] Of these three, only CSA-4110 was similarly active against PA01and CA, inhibiting growth at 8 μg/mL.
# [2] = test system: Pseudomonas aeruginosa 01 (PA01); assay: MIC and MBC, broth microdilution, PA01 (Table 1); type: cell-based; settings: Pseudomonas aeruginosa
# From the text: as §1, §2
# Candida albicans (CA) = assay: MIC and MFC, broth microdilution, CA (Table 1); type: cell-based; settings: Candida albicans
# From the text: as §1, §2
# S. aureus ATCC 25923 = assay: MIC/MBC of CSA-4110, Gram positive bacteria (Table 2); type: cell-based; settings: Staphylococcus aureus, ATCC25923
# Description: as §2
# (§3) CSA-4110 was evaluated further against a broader range of bacterial and fungal strains. Acinetobacter baumannii and several isolates of Staphylococcus aureus, Klebsiella pneumoniae, and Candida auris were selected, further broadening the coverage of high and critical priority pathogens. Streptococcus uberis, Staphylococcus pseudintermedius, Proteus mirabilis, and Escherichia coli were also screened to obtain a more complete efficacy profile. […] For comparison, previous work established the MICs of CSA-131 against strains of Staphylococcus aureus, Pseudomonas aeruginosa, and Candida albicans at 0.5-2 μg/mL
# S. aureus ATCC 27734 = assay: as above; type: cell-based; settings: Staphylococcus aureus, ATCC27734
# Description: as §2, §3
# S. aureus ATCC 6538 = assay: as above; type: cell-based; settings: Staphylococcus aureus, ATCC6538
# Description: as §2, §3
# S. uberis ATCC 27958 = assay: as above; type: cell-based; settings: Streptococcus uberis, ATCC27958
# Description: as §2, §3
# P. mirabilis ATCC 29906 = assay: MIC/MBC of CSA-4110, Gram negative bacteria (Table 3); type: cell-based; settings: Proteus mirabilis, ATCC29906
# Description: as §2, §3
# PM is a Gram-negative organism which is occasionally found in urinary tract infections in individuals with functional or anatomical anomalies. It is often noted for its ability to modulate its susceptibility to cationic biocides primarily through modifications to its efflux system and the structure of lipopolysaccharide, a negatively charged endotoxin located in the outer membrane. This can provide insight into the mechanism-of-action for CSA-4110. […]
# [3] = test system: broader range of bacterial and fungal strains; assay: CSA-4110 against a broader range of bacterial and fungal strains (summary of Tables 2-4); type: cell-based
# Description: as §2, §3
# [4] = test system: methicillin-resistant Staphylococcus aureus (MRSA); assay: Example 1 MIC/MBC (FIG. 1, FIG. 2), MRSA; type: cell-based
# Description: (§4) The antimicrobial activities of CSA-4108, CSA-4110, CSA-4112, and CSA-4114 were determined relative to methicillin-resistant Staphylococcus aureus (MRSA), Pseudomonas aeruginosa (Pa), and Candida albicans 90028. The minimum inhibitory concentration (MIC) for CSA-4108, CSA-4110, CSA-4112, and CSA-4114 relative to the foregoing microbes is graphically reported in FIG. 1. The minimum bactericidal concentration (MBC) and minimum fungicidal concentration […] for CSA-4108, CSA-4110, CSA-4112, and CSA-4114 relative to the foregoing microbes are graphically reported in FIG. 2.
# Candida albicans 90028 = assay: Example 1 MIC/MFC (FIG. 1, FIG. 2), C. albicans; type: cell-based
# Description: as §4
# physchem = type: physicochemical; settings: for half-life: buffer
# Description: (§5) The stability, more particularly the rate of hydrolysis in water, of CSA-4110 was tested at various pH values or when exposed to lipase.
# (§6) To measure the stability of CSA-4110 under various conditions (pH and presence of lipase), monitored degradation over time by HPLC. To enable UV/visible detection, CSA-4110 required derivatization with a chromophore. A precolumn derivatization method was adapted using Fmoc-Cl. This method also required CSA-131 as an internal standard to eliminate errors due to volumetric variations.
# (§7) With a reliable quantitative analysis method in hand, the optimal storage conditions were determined for CSA-4110 in solution and how quickly CSA-4110 degrades when exposed to mammalian lipases and varied pH. Reference is again made to FIGS. 3A-3D.
# lipase = assay: Stability (hydrolysis) in the presence of lipase, HPLC; type: in vitro ADME
# Description: as §5, §6, §7
# MRSA ATCC BAA-42 = assay: Membrane depolarization, DiSC2(5) fluorescence; type: cell-based, Staphylococcus aureus; settings: 8 μg/mL, added at 140 seconds, FIG. 5
# Description: Reference is made to FIGS. 4 and 5. […] CSA-131 or CSA-4110 was added at 140 second to achieve 8 μg/mL after addition.
# Antimicrobial peptides (AMPs) and CSA compounds are known to permeabilize bacterial membranes. For bacterial survival, the cytoplasmic membrane must be polarized. Depolarization of this membrane prevents ATP synthesis and leads to cell death. The dye 3,3′-diethylthiadicarbocyanine iodide (DiSC2(5)) can be used to measure cell membrane polarization. Fluorescence of this dye is decreased when it inserts into polarized membranes, and membrane depolarization results in substantial increases in fluorescence (see FIG. 5).
# MRSA was used to explore the impact of CSA-4110 on membrane depolarization and compared results to those with ceragenin CSA-131. […] Fluorescence was monitored over time after addition of CSA-4110 or CSA-131. which incorporated into cellular membranes.
# [5] = all strains of Tables 2-4 except Proteus mirabilis
smiles,measurement,setting,value
CCCCCCCCCC(=O)OCC(O)COC(=O)CC[C@@H](C)[C@H]1CC[C@H]2[C@@H]3[C@H](OC(=O)CCN)C[C@@H]4C[C@H](OC(=O)CCN)CC[C@]4(C)[C@H]3C[C@H](OC(=O)CCN)[C@]12C (stereo partly drawn) [CSA-4110],MBC,"[1]; MBC, value in parentheses, kills at least 99.9%",8 µg/mL
same,MIC,[1]; first value of cell,≤ 8 µg/mL
same,MBC,"[2]; MBC, value in parentheses",32 µg/mL
same,MIC,[2]; first value of cell,8 µg/mL
same,MBC,"Candida albicans (CA); MFC, value in parentheses",16 µg/mL
same,MIC,Candida albicans (CA); first value of cell,8 µg/mL
same,MBC,S. aureus ATCC 25923,8 µg/mL
same,MIC,S. aureus ATCC 25923,4 µg/mL
same,MBC,S. aureus ATCC 27734,4 µg/mL
same,MIC,S. aureus ATCC 27734,4 µg/mL
same,MBC,S. aureus ATCC 6538,8 µg/mL
same,MIC,S. aureus ATCC 6538,4 µg/mL
same,MBC,S. uberis ATCC 27958,4 µg/mL
same,MIC,S. uberis ATCC 27958,2 µg/mL
same,MBC,P. mirabilis ATCC 29906,64 µg/mL
same,MIC,P. mirabilis ATCC 29906,16 µg/mL
same,"MBCs/MFCs, range over the strains",[3]; [5],2 to 16 µg/mL
same,"MICs, range over the strains",[3]; [5],2 to 8 µg/mL
same,"MICs, range as restated in the CMC paragraph",[3]; compared with CMC,2 to 8 g/mL
same,"MBC (FIG. 2), ranking in words",[4],lowest MBC and MFC
same,"MIC (FIG. 1), ranking in words",[4],lowest MIC
same,"MFC (FIG. 2), ranking in words",Candida albicans 90028,lowest MBC and MFC
same,"MIC (FIG. 1), ranking in words",Candida albicans 90028,same MIC
same,half-life,physchem; pH 7.2,4.5 days
same,half-life,physchem; pH 10,1 days
same,stability / hydrolysis in aqueous solution,physchem; pH 7.2,less stable
same,stability / hydrolysis in aqueous solution,physchem; pH 10,unstable
same,hydrolysis in aqueous solution containing lipase,lipase; FIG. 3D,hydrolyzed most rapidly
same,half-life,"lipase; mammalian (lipase; species not named), lipase in aqueous solution, dissolved with a lipase at room temperature at pH=6.9",60 min
same,fluorescence of DiSC2(5) after addition (membrane depolarization),MRSA ATCC BAA-42,rapid increase of fluorescence
